Experimental data published in paper PMC10638440, “Structural basis of bile salt extrusion and small-molecule inhibition in human BSEP” (Nature Communications, 2023).

Experiments:
BSEP [1] = biological target: T1, BSEP (Homo sapiens, UniProt O95342); assay: cryo-EM structure of vanadate-trapped BSEP at […] Å; assay type: binding; parameters: gene ABCB11; full-length wild-type, nanodisc-reconstituted
BSEPE1244Q = biological target: T2, BSEPE1244Q (Homo sapiens, UniProt O95342, E1244Q); assay: cryo-EM structure at […] Å; assay type: binding
T2 construct: gene ABCB11; full-length, nanodisc-reconstituted
T2 sequence (O95342 whole entry E1244Q): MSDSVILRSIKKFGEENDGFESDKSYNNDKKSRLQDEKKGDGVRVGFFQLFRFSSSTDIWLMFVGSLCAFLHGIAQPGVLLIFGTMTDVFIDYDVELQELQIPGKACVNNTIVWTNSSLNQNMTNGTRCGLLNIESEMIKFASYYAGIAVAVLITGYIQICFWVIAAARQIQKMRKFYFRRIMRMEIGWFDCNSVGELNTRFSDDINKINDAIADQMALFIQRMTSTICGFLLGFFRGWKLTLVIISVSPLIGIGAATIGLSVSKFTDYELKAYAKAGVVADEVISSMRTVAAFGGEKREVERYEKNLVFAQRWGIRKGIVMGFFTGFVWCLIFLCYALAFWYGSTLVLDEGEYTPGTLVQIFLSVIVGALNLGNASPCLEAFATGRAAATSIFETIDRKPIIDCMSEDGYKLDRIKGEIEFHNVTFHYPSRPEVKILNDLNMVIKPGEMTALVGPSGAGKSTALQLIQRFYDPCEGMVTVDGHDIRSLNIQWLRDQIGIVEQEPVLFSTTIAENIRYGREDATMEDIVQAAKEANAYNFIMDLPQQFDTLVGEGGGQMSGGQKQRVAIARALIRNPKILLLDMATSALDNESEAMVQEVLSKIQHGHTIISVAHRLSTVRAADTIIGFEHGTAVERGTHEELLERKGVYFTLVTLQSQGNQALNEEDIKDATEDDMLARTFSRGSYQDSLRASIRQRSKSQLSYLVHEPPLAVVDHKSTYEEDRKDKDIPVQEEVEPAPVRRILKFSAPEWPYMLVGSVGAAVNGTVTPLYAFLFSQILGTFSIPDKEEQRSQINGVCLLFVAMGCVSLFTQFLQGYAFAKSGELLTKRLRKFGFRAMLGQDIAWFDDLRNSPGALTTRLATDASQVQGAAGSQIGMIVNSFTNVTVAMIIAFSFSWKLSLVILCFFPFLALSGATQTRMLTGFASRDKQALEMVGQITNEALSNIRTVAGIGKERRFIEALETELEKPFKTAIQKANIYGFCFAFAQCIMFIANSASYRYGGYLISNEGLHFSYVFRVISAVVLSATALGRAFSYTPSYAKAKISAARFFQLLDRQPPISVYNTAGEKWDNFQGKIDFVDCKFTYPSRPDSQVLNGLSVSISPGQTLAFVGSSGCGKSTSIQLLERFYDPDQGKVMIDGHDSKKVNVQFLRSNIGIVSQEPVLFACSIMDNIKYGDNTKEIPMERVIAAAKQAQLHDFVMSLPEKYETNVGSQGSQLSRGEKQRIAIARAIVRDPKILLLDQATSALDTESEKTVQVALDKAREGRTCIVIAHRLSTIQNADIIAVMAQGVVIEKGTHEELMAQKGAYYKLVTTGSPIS

BSEP [2] = biological target: T1, BSEP; parameters: gene ABCB11
BSEP N996A = biological target: T3, BSEP N996A (Homo sapiens, UniProt O95342, N996A); assay: GBM-stimulated ATPase activity ([…] GBM); assay type: biochemical
T3 construct: gene ABCB11; full-length
T3 sequence (O95342 whole entry N996A): as the sequence (O95342 whole entry E1244Q) above, with N996A, Q1244E counted along it

T1 sequence (O95342 whole entry): as the sequence (O95342 whole entry E1244Q) above, with Q1244E counted along it

## Nc1ncnc2c1ncn2[C@@H]1O[C@H](COP(=O)(O)OP(=O)(O)O)[C@@H](O)[C@H]1O [ADP]
BSEP [1]
  cryo-EM structure of vanadate-trapped BSEP at 2.8 Å: trapping ADP and preventing its release from NBS2

## Nc1ncnc2c1ncn2[C@@H]1O[C@H](CO[P@@](=O)(O)O[P@](=O)(O)OP(=O)(O)O)[C@@H](O)[C@H]1O [ATP]
BSEPE1244Q
  cryo-EM structure at 3.0 Å: We observed two distinct EM densities in the two NBSs, each corresponding to an ATP molecule
BSEP [2]
  Km: 207 µM

## COc1ccc(Cl)cc1C(=O)NCCc1ccc(S(=O)(=O)NC(=O)NC2CCCCC2)cc1 [GBM, glibenclamide]
BSEP N996A
  GBM-stimulated ATPase activity (300 μM GBM): N996A and S1022F exhibit increased basal ATPase activity compared to the wild-type BSEP, and their activity is stimulated by GBM
